# According to ChEMBL document CHEMBL5154891, “Discovery of AZD4625, a Covalent Allosteric Inhibitor of the Mutant GTPase KRASG12C” (J Med Chem, 2022):
# Active and inactive are the calls of the source. No cut-off for these calls is given here.
# Columns and labels:
# GTPase KRas = GTPase KRas (Homo sapiens, UniProt P01116, G12C); experiment: Inhibition of C-terminal Avi and 6His-tagged human KRAS 2B G12C mutant (1 to 166 residues) expressed in Escherichia coli BL21 (DE3) assessed as inhibition of SOS mediated nucleotide exchange preincubated for 4 hrs followed by SOS1 addition by HTRF assay
# [1] = Lipophilicity, log D of the compound at pH 7.4; conditions: buffer, pH 7.4, logD
# [2] = Metabolic stability in rat hepatocytes assessed as intrinsic clearance per 10^6 cells at 5 uM measured after 60 mins by UHPLC/UV/MS/MS; format: ADME, cell-based, Hepatocyte; conditions: for hepatocyte CLint at 5 µM: read-out: CLH
# [3] = Bioavailability in Han Wistar rat at 2 micromol/kg, po and 1 umol/kg, iv; format: ADME, organism-based; conditions: in vivo; for bioavailability: Han Wistar, 2 µmol/kg
# in vitro = conditions: human, liver microsomes, CLH
# [4] = Inhibition of spheroid proliferation in human NCI-H358 cells harboring KRAS G12C mutant measured after 6 days by CellTiter-Glo assay; format: functional, cell-based; conditions: NCI-H358, 144 h
# A549 = experiment: Inhibition of spheroid proliferation in human A549 cells […] measured after 6 days by CellTiter-Glo assay; format: functional, cell-based; conditions: A549, 144 h
# [5] = molecular target: Ribosomal protein S6 kinase alpha-1 (Homo sapiens, UniProt Q15418, G12C); experiment: Inhibition of p90RSK phosphorylation in human NCI-H358 cells harboring KRAS G12C mutant measured for 2 hrs by immunofluorescence assay; format: cell-based
# [6] = molecular target: T1, Ribosomal protein S6 kinase alpha-1 (Homo sapiens, UniProt Q15418); experiment: Inhibition of p90RSK phosphorylation in human PC-9 cells measured for 2 hrs by immunofluorescence assay; format: cell-based
# [7] = molecular target: T1, Ribosomal protein S6 kinase alpha-1; experiment: Inhibition of p90RSK phosphorylation in human Calu-6 cells harboring KRAS Q61K measured for 2 hrs by immunofluorescence assay; format: cell-based
# [8] = molecular target: Elongation factor 2 (Homo sapiens) (UniProt P13639); experiment: Binding affinity to EEF2 in human […] cell lysate assessed as trypsin-mediated biotinylated cysteine residues digestion by measuring reduction in protein level at 4 uM pretreated for 2 hrs followed by labelled with iodoacetamide-desthiobiotin by MS analysis relative to control; format: subcellular; conditions: NCI-H358
# [9] = molecular target: T2, Oxidation resistance protein 1 (Homo sapiens) (UniProt Q8N573); experiment: Binding affinity to OXR1 in human […] cell lysate assessed as trypsin-mediated biotinylated cysteine residues digestion by measuring reduction in protein level at 4 uM pretreated for 2 hrs followed by labelled with iodoacetamide-desthiobiotin by MS analysis relative to control; format: subcellular; conditions: NCI-H358
# T2 sequence (whole entry): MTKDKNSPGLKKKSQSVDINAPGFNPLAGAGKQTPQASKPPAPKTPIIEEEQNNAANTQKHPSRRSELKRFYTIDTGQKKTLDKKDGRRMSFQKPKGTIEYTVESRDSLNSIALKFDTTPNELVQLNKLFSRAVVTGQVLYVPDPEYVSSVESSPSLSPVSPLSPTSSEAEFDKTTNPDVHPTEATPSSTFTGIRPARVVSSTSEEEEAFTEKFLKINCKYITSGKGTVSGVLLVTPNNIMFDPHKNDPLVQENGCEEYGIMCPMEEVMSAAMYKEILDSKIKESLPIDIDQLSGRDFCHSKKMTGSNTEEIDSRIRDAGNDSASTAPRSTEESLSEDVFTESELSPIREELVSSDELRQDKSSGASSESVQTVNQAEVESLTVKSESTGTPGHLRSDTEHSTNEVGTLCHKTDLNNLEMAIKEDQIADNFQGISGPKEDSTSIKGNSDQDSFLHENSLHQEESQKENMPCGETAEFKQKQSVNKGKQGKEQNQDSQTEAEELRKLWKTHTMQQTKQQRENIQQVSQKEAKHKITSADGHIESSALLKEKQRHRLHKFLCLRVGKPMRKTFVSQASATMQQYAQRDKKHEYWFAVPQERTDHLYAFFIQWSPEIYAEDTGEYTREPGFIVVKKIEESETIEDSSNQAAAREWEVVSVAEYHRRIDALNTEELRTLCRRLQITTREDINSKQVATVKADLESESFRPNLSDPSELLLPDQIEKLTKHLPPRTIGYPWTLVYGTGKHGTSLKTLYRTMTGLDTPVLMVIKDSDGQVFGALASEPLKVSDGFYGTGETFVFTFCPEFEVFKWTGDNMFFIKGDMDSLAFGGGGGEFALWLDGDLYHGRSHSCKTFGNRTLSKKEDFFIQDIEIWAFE
# MIA PaCa-2 = experiment: Antitumor activity against human MIA PaCa-2 cells harbouring KRAS G12C mutant xenografted in athymic nude Foxn1 nu mouse assessed as tumor regression at 100 mg/kg, po administered daily for 21 days and measured twice weekly by caliper analysis; format: functional, organism-based; conditions: time 21.0 day
# Mus musculus = experiment: In vivo inhibition of RAS/MAPK pathway in human MIA PaCa-2 cells harbouring KRAS G12C mutant xenografted in athymic nude Foxn1 nu mouse assessed as reduction in DUSP6 expression measured at 3 to 6 hrs post dose; format: functional; conditions: dose 4-100 mg/kg, time 3-6 hrs, DDE = dose-dependent effect
# [10] = Metabolic stability in human Hepatocyte assessed as intrinsic clearance measured per 10^6 cells; format: ADME, cell-based; conditions: hepatocytes, read-out: CLH
# [11] = Hepatic blood flow in CD-1 mouse; format: ADME
# [12] = Hepatic blood flow in Wistar Han rat; format: ADME
# [13] = Hepatic blood flow in Beagle dog; format: ADME, Canis lupus familiaris
# [14] = Toxicity in athymic nude-Foxn1nu mouse xenografted with human MIA PaCa-2 cells assessed as tolerability at 4 to 100 mg/kg, po administered for 21 days; format: organism-based; conditions: in vivo, 504 h, dose 4-100 mg/kg, time 21 day
# [15] = Drug metabolism in human hepatocyte assessed as oxidative metabolism; format: ADME, cell-based; conditions: hepatocytes, 1 h, time 60 min
# [16] = Stability in mouse whole blood; format: ADME, tissue-based
# [17] = Stability in rat whole blood; format: ADME, tissue-based
# [18] = Stability in dog whole blood; format: ADME, tissue-based, Canis lupus familiaris
# [19] = Stability in monkey whole blood; format: ADME, tissue-based, Macaca mulatta; conditions: rhesus monkey
Compound,IC50 (GTPase KRas),logD [1],hepatocyte CLint at 5 µM [2],bioavailability [3],"microsomal CLint at 1 h, 5 µM (in vitro)",also measured
"C=CC(=O)N1CCN2c3ncnc4cc(-c5c(C)ccc6[nH]ncc56)c(Cl)c(c34)OC[C@H]2C1 (single isomer, unassigned; atropisomer 2)",17800 nM,–,–,–,–,–
C=CC(=O)N1C[C@H]2COc3c(Cl)c(-c4c(O)cccc4F)c(F)c4ncnc(c34)N2C[C@@H]1C,135 nM,3.4,238 µL/min/1e6 cells,31%,110 µL/min/mg,–
"C=CC(=O)N1CCN2c3ncnc4cc(-c5c(C)ccc6[nH]ncc56)c(Cl)c(c34)OC[C@@H]2C1 (single isomer, unassigned; atropisomer 2)",27100 nM,–,–,–,–,–
C=CC(=O)N1C[C@@H]2CCOc3c(Cl)c(-c4c(O)cccc4F)c(F)c4ncnc(c34)N2C[C@H]1C,3 nM,3.2,40 µL/min/1e6 cells,75%,28 µL/min/mg,IC50 [4]: 4.1 nM; IC50 (A549): 1670 nM; IC50 [5]: 36 nM; IC50 [6]: 4950 nM; IC50 [7]: > 30000 nM; Activity [8]: Active; Activity [9]: Active; Activity (MIA PaCa-2): Active; Activity (Mus musculus): Dde; hepatocyte CLint [10]: < 2 µL/min/1e6 cells; QH [11]: 152 mL/min/kg; QH [12]: 72 mL/min/kg; QH [13]: 55 mL/min/kg; Activity [14]: Non-Toxic
C=CC(=O)N1CCN2c3ncnc4cc(-c5c(C)ccc6[nH]ncc56)c(Cl)c(c34)OC[C@H]2C1 (atropisomer aR),171 nM,–,–,–,–,–
C=CC(=O)N1C[C@H]2COc3c(Cl)c(-c4c(O)cccc4F)c(F)c4ncnc(c34)N2C[C@H]1C (stereo in doubt; 32),64 nM,–,–,–,–,"CLint_hep ([2]; 1 h, 5 µM): 43 uL/min/1e6 cells; F ([3]; po, at 2 µmol/kg): 31%; GI50 ([4]; time 6 day): 284 nM"
C=CC(=O)N1C[C@H]2COc3c(Cl)c(-c4c(O)cccc4F)c(F)c4ncnc(c34)N2C[C@H]1C (stereo in doubt; 30),117 nM,3.2,64 µL/min/1e6 cells,28%,24 µL/min/mg,–
"C=CC(=O)N1CCN2c3ncnc4cc(-c5c(C)ccc6[nH]ncc56)c(Cl)c(c34)OCC[C@H]2C1 (single isomer, unassigned; atropisomer 2)",9 nM,3.4,46 µL/min/1e6 cells,16%,189 µL/min/mg,Drug metabolism [15]: Metabolite_Detected; hepatocyte CLint [10]: 20 µL/min/1e6 cells
C=CC(=O)N1C[C@@H]2CCOc3c(Cl)c(-c4c(O)cccc4F)c(F)c4ncnc(c34)N2C[C@@H]1C,138 nM,3.2,143 µL/min/1e6 cells,51%,203 µL/min/mg,–
C=CC(=O)N1CCN(c2ncnc3cc(-c4c(C)ccc5[nH]ncc45)c(Cl)cc23)CC1,–,3.5,56 µL/min/1e6 cells,–,38 µL/min/mg,–
"C=CC(=O)N1CCN2c3ncnc4cc(-c5c(C)ccc6[nH]ncc56)c(Cl)c(c34)OCC[C@@H]2C1 (single isomer, unassigned; atropisomer 1)",15500 nM,3.4,50 µL/min/1e6 cells,–,192 µL/min/mg,–
C=CC(=O)N1CCN2c3ncnc4c(F)c(-c5c(O)cccc5F)c(Cl)c(c34)OCC[C@H]2C1,< 5 nM,2.7,99 µL/min/1e6 cells,36%,66 µL/min/mg,hepatocyte CLint [10]: 12 µL/min/1e6 cells
C=CC(=O)N1CCN2c3ncnc4c(F)c(-c5c(O)cccc5F)c(Cl)c(c34)OC[C@@H]2C1,19 nM,2.9,79 µL/min/1e6 cells,0%,13 µL/min/mg,Stability [16]: Unstable; Stability [17]: Unstable; Stability [18]: Unstable; Stability [19]: Unstable
C=CC(=O)N1CCN2c3ncnc4cc(-c5c(C)ccc6[nH]ncc56)c(Cl)c(c34)OC[C@@H]2C1 (atropisomer aS),–,–,109 µL/min/1e6 cells,–,58 µL/min/mg,–
